Results from ChEMBL document CHEMBL1148459, “1-alkyl-4-acylpiperazines as a new class of imidazole-free histamine H(3) receptor antagonists” (J Med Chem, 2004).

Biological target: Histamine H3 receptor (Homo sapiens, UniProt Q9Y5N1)
Assay: Antagonist potency against human histamine H3 receptor expressed in CHO cells was determined by GTPgamma-S-assay
Assay type: functional, cell-based

Sequence of Histamine H3 receptor (Q9Y5N1 whole entry): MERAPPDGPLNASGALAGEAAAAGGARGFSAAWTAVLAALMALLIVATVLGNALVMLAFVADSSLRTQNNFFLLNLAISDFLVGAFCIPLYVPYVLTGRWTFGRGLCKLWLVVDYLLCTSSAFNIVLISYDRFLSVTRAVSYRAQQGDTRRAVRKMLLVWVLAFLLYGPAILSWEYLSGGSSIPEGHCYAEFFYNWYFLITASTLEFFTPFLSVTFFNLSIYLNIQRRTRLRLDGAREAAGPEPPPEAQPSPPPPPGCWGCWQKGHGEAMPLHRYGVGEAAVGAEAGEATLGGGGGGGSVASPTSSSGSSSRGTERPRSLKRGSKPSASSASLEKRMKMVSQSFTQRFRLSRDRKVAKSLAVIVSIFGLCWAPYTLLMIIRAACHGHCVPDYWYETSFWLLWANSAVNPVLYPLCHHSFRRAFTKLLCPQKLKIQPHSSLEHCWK

SMILES | Ki
CCC(CC)N1CCN(C(=O)CCC(=O)c2ccc(Cl)cc2)CC1 | 0.86 nM
CCC(C)(C)N1CCN(C(=O)CCC(=O)c2ccc(Cl)cc2)CC1 | 0.54 nM
CCC(CC)N1CCN(C(=O)CCC(=O)c2ccc(C(F)(F)F)cc2)CC1 | 1.4 nM
CCC(CC)N1CCN(C(=O)c2ccc(OC(F)(F)F)cc2)CC1 | 93 nM
CCC(CC)N1CCN(C(=O)COc2ccc(OC(F)(F)F)cc2)CC1 | 110 nM
CCC(CC)N1CCN(C(=O)Cc2ccc(-c3ccccc3)cc2)CC1 | 2.9 nM
CCC(CC)N1CCN(C(=O)CCOc2ccc(C#N)cc2)CC1 | 0.74 nM
C#CC(C)(C)N1CCN(C(=O)CCC(=O)c2ccc(Cl)cc2)CC1 | 89 nM
CCC(CC)N1CCN(C(=O)CCC(=O)c2ccc(F)cc2)CC1 | 1.5 nM
CCC(CC)N1CCN(C(=O)CCc2ccc(C(F)(F)F)cc2)CC1 | 8.5 nM
O=C(CCC(=O)N1CCN(C2CCCCCC2)CC1)c1ccc(Cl)cc1 | 34 nM
O=C(CCC(=O)N1CCN(C2CC2)CC1)c1ccc(Cl)cc1 | 13.3 nM
CCC(CC)N1CCN(C(=O)CCC(=O)c2ccc(OC)c(F)c2)CC1 | 0.43 nM
O=C(CCC(=O)N1CCN(C2CCCCC2)CC1)c1ccc(Cl)cc1 | 3.6 nM
CCC(CC)N1CCN(C(=O)Cc2ccc(C(C)=O)cc2)CC1 | 24 nM
CCC(CC)N1CCN(C(=O)Cc2ccc(OC(F)(F)F)cc2)CC1 | 2.6 nM
O=C(CCC(=O)N1CCN(C2CCOCC2)CC1)c1ccc(Cl)cc1 | 9.2 nM
CCC(CC)N1CCN(C(=O)Cc2ccc(C(F)(F)F)cc2)CC1 | 2.3 nM
O=C(CCC(=O)N1CCN(C2CCCCCCC2)CC1)c1ccc(Cl)cc1 | 450 nM
CCC(CC)N1CCN(C(=O)Cc2ccc(N(C)C)cc2)CC1 | 0.96 nM
O=C(CCC(=O)N1CCN(C2CCC2)CC1)c1ccc(Cl)cc1 | 1.2 nM
CC(C)N1CCN(C(=O)CCC(=O)c2ccc(Cl)cc2)CC1 | 4.4 nM
CCC(CC)N1CCN(C(=O)CCOc2ccc(Cl)cc2)CC1 | 1.2 nM
CCC(CC)N1CCN(C(=O)CCC(=O)c2ccc(OC(F)(F)F)cc2)CC1 | 2.7 nM
O=C(CCC(=O)N1CCN(CC2CC2)CC1)c1ccc(Cl)cc1 | 8.3 nM
CCCC(CCC)N1CCN(C(=O)CCC(=O)c2ccc(Cl)cc2)CC1 | 480 nM
